Assay results published in ChEMBL document CHEMBL1123498, “Structural studies on bioactive compounds. 4. A structure-antitumor activity study on analogues of N-methylformamide” (J Med Chem, 1986).

Legend:
Mus musculus [1] = test: Antitumor activity was evaluated against the M5076 reticulum cell sarcoma in mice measured as Control tumor volume for the treated at the optimal dose 400 mg/Kg day; format: functional
Mus musculus [2] = test: Antitumor activity was evaluated against the M5076 reticulum cell sarcoma in mice measured as mean tumor volume for the treated at the optimal dose 400 mg/kg day; format: functional
Mus musculus [3] = test: Antitumor activity was evaluated against the M5076 reticulum cell sarcoma in mice at dose of 800-100 mg/kg per day; format: ADME, organism-based
Mus musculus [4] = test: Antitumor activity was evaluated against the M5076 reticulum cell sarcoma in mice at dose of 150-6.25 mg/kg per day; format: ADME, organism-based
Mus musculus [5] = test: Antitumor activity was evaluated for the compound against the M5076 reticulum cell sarcoma in mice and the % T/C(treated/control) value was calculated at optimal dose of 50 mg/kg; format: functional
Mus musculus [6] = test: Antitumor activity was evaluated against the M5076 reticulum cell sarcoma in mice measured as mean tumor volume for the treated at the optimal dose 50 mg/Kg/day; format: functional
Mus musculus [7] = test: Antitumor activity was evaluated against the M5076 reticulum cell sarcoma in mice measured as Control tumor volume for the treated at the optimal dose 50 mg/Kg/day; format: functional
Mus musculus [8] = test: Antitumor activity was evaluated against the M5076 reticulum cell sarcoma in mice at dose of 1500-600 mg/kg per day; format: functional
Mus musculus [9] = test: Antitumor activity was evaluated against the M5076 reticulum cell sarcoma in mice measured as mean tumor volume for the treated at the optimal dose 1000 mg/Kg/day; format: functional
Mus musculus [10] = test: Antitumor activity was evaluated against the M5076 reticulum cell sarcoma in mice measured as Control tumor volume for the treated at the optimal dose 1000 mg/Kg/day; format: functional
Mus musculus [11] = test: Antitumor activity was evaluated for the compound against the M5076 reticulum cell sarcoma in mice and the % T/C(treated/control) value was calculated at optimal dose of 1000 mg/kg; format: functional
Mus musculus [12] = test: Antitumor activity was evaluated against the TLX5 lymphoma in mice measured for control as death day at a optimal dose 400 mg/Kg/day; format: functional
Mus musculus [13] = test: Antitumor activity was evaluated against the TLX5 lymphoma in mice measured as treated to control at optimal dose. 800 mg/Kg/day; format: functional
Mus musculus [14] = test: Antitumor activity was evaluated against the TLX5 lymphoma measured as mean death day for the treated at a optimal dose 400 mg/Kg/day; format: functional
Mus musculus [15] = test: Antitumor activity was evaluated against the TLX5 lymphoma in mice measured for control as death day at the below optimal dose 400 mg/Kg/day; format: functional
Mus musculus [16] = test: Antitumor activity was evaluated against the TLX5 lymphoma measured as mean death day for the treated at a optimal dose of 200 mg/Kg/day; format: functional
Mus musculus [17] = test: Antitumor activity was evaluated against the M5076 reticulum cell sarcoma in mice measured as mean tumor volume for the treated at the optimal dose 25 mg/Kg/day; format: functional
Mus musculus [18] = test: Antitumor activity was evaluated against the TLX5 lymphoma measured as mean death day for the treated at a optimal dose of 100 mg/Kg/day; format: functional
Mus musculus [19] = test: Antitumor activity was evaluated against the TLX5 lymphoma measured as mean death day for the treated at a optimal dose of 400 mg/Kg/day; format: functional
Mus musculus [20] = test: Antitumor activity was evaluated against the TLX5 lymphoma in mice measured as treated to control at a optimal dose of 100 mg/Kg/day; format: functional
Mus musculus [21] = test: Antitumor activity was evaluated against the M5076 reticulum cell sarcoma in mice measured as Control tumor volume for the treated at the optimal dose 50 mg/kg/day; format: functional
Mus musculus [22] = test: Antitumor activity was evaluated against the TLX5 lymphoma in mice measured for control as death day at a optimal dose of 100 mg/Kg/day; format: functional
Mus musculus [23] = test: Antitumor activity was evaluated against the M5076 reticulum cell sarcoma in mice measured as Control tumor volume for the treated at the optimal dose 25 mg/Kg/day; format: functional
Mus musculus [24] = test: Antitumor activity was evaluated against the TLX5 lymphoma in mice measured as treated to control at a optimal dose of 400 mg/Kg/day; format: functional
Mus musculus [25] = test: Antitumor activity was evaluated for the compound against the M5076 reticulum cell sarcoma in mice and the % T/C(treated/control) value was calculated at optimal dose of 200 mg/kg; format: functional
Mus musculus [26] = test: Antitumor activity was evaluated against the TLX5 lymphoma in mice measured as treated to control at a optimal dose of 200 mg/Kg/day; format: functional
Mus musculus [27] = test: Antitumor activity was evaluated against the TLX5 lymphoma in mice measured for control as death day at a optimal dose of 800 mg/Kg/day; format: functional
Mus musculus [28] = test: Antitumor activity was evaluated against the TLX5 lymphoma in mice measured as treated to control at a optimal dose of 800 mg/Kg/day; format: functional
Mus musculus [29] = test: Antitumor activity was evaluated against the M5076 reticulum cell sarcoma in mice measured as Control tumor volume for the treated at the optimal dose 200 mg/Kg/day; format: functional
Mus musculus [30] = test: Antitumor activity was evaluated for the compound against the M5076 reticulum cell sarcoma in mice and the % T/C(treated/control) value was calculated at optimal dose of 100 mg/kg; format: functional
Mus musculus [31] = test: Antitumor activity was evaluated for the compound against the M5076 reticulum cell sarcoma in mice and the % T/C(treated/control) value was calculated at optimal dose of 25 mg/kg; format: functional
Mus musculus [32] = test: Antitumor activity was evaluated against the M5076 reticulum cell sarcoma in mice measured as mean tumor volume for the treated at the optimal dose 100 mg/Kg/day; format: functional
Mus musculus [33] = test: Antitumor activity was evaluated against the TLX5 lymphoma measured as mean death day for the treated at a optimal dose of 800 mg/Kg/day; format: functional
Mus musculus [34] = test: Antitumor activity was evaluated against the M5076 reticulum cell sarcoma in mice at dose of 400-6.25 mg/kg per day; format: ADME, organism-based
Mus musculus [35] = test: Antitumor activity was evaluated against the TLX5 lymphoma in mice measured for control as death day at a optimal dose of 200 mg/Kg/day; format: functional
Mus musculus [36] = test: Antitumor activity was evaluated against the M5076 reticulum cell sarcoma in mice measured as Control tumor volume for the treated at the optimal dose 100 mg/kg/day; format: functional
Mus musculus [37] = test: Antitumor activity was evaluated against the M5076 reticulum cell sarcoma in mice at dose of 2500-600 mg/kg per day; format: ADME, organism-based
Mus musculus [38] = test: Antitumor activity was evaluated against the TLX5 lymphoma in mice measured as treated to control at optimal dose. 100 mg/Kg/day; format: functional
Mus musculus [39] = test: Antitumor activity was evaluated against the M5076 reticulum cell sarcoma in mice at dose of 200-25 mg/kg per day; format: ADME, organism-based
Mus musculus [40] = test: Antitumor activity was evaluated against the TLX5 lymphoma in mice measured for control as death day at a optimal doses of 800 mg/Kg/day; format: functional
Mus musculus [41] = test: Antitumor activity was evaluated against the M5076 reticulum cell sarcoma in mice measured as mean tumor volume for the treated at the optimal dose 200 mg/Kg/day; format: functional
Mus musculus [42] = test: Antitumor activity was evaluated against the M5076 reticulum cell sarcoma in mice at dose of 400-100 mg/kg per day; format: ADME, organism-based
Mus musculus [43] = test: Antitumor activity was evaluated against the TLX5 lymphoma measured as mean death day for the treated at a optimal dose 800 mg/Kg/day; format: functional
Mus musculus [44] = test: Antitumor activity was evaluated against the TLX5 lymphoma in mice measured as treated to control at optimal dose. 400 mg/Kg/day; format: functional

CNC(=O)c1ccccc1
Control tumor volume (Mus musculus [1]): 1.9 | Mean tumor volume (Mus musculus [2]): 0.8 | LD10 (Mus musculus [3]): 450 mg/kg/day | LD50 (Mus musculus [3]): 650 mg/kg/day

CNC(=O)ON(C(C)=O)C(=O)NC [CARACEMIDE]
LD10 (Mus musculus [4]): 53 mg/kg/day | LD50 (Mus musculus [4]): 63 mg/kg/day | T/C (Mus musculus [5]): 38% | Mean tumor volume (Mus musculus [6]): 0.9 | Control tumor volume (Mus musculus [7]): 2.4

CN(C)C=O [DIMETHYLFORMAMIDE]
LD10 (Mus musculus [8]): 1130 mg/kg/day | LD50 (Mus musculus [8]): 1280 mg/kg/day | Mean tumor volume (Mus musculus [9]): 1 | Control tumor volume (Mus musculus [10]): 2.5 | T/C (Mus musculus [11]): 40%

CCNC=O
Control death day (Mus musculus [12]): 9.2 | T/C (Mus musculus [13]): 137% | Mean day of death (Mus musculus [14]): 12.6

CNC=O
Control death day (Mus musculus [15]): 9.2 | Mean day of death (Mus musculus [16]): 12.4 | Mean tumor volume (Mus musculus [17]): 2.1 | Mean day of death (Mus musculus [18]): 11 | Mean day of death (Mus musculus [19]): 16.4 | T/C (Mus musculus [20]): 120% | Control tumor volume (Mus musculus [21]): 2.7 | T/C (Mus musculus [5]): 33% | Control death day (Mus musculus [22]): 9.2 | Control tumor volume (Mus musculus [23]): 2.7 | T/C (Mus musculus [24]): 178% | T/C (Mus musculus [25]): 0% | T/C (Mus musculus [26]): 135% | Mean tumor volume (Mus musculus [6]): 0.9 | Control death day (Mus musculus [27]): 9.2 | T/C (Mus musculus [28]): 191% | Control tumor volume (Mus musculus [29]): 2.7 | T/C (Mus musculus [30]): 11% | T/C (Mus musculus [31]): 70% | Mean tumor volume (Mus musculus [32]): 0.3 | Mean day of death (Mus musculus [33]): 17.6 | LD10 (Mus musculus [34]): 220 mg/kg/day | LD50 (Mus musculus [34]): 300 mg/kg/day | Control death day (Mus musculus [35]): 9.2 | Control tumor volume (Mus musculus [36]): 2.7

O=CNCO
Mean tumor volume (Mus musculus [9]): 0.8 | LD10 (Mus musculus [37]): 1580 mg/kg/day | LD50 (Mus musculus [37]): 1930 mg/kg/day | Control tumor volume (Mus musculus [10]): 2.1 | T/C (Mus musculus [11]): 38%

CN(C)/C=C\[N+](=O)[O-]
Mean day of death (Mus musculus [18]): 15.4 | T/C (Mus musculus [5]): 35% | Control death day (Mus musculus [22]): 11.1 | T/C (Mus musculus [38]): 139% | Mean tumor volume (Mus musculus [6]): 0.5 | LD10 (Mus musculus [39]): 55 mg/kg/day | LD50 (Mus musculus [39]): 75 mg/kg/day | Control tumor volume (Mus musculus [7]): 1.5

NC=O [FORMAMIDE]
Control death day (Mus musculus [40]): 9.1 | Mean tumor volume (Mus musculus [41]): 0.8 | T/C (Mus musculus [25]): 38% | T/C (Mus musculus [13]): 123% | Control tumor volume (Mus musculus [29]): 2.1 | Mean day of death (Mus musculus [33]): 11.2 | LD10 (Mus musculus [42]): 200 mg/kg/day | LD50 (Mus musculus [42]): 270 mg/kg/day

[2H]C([2H])([2H])NC=O
Control death day (Mus musculus [40]): 13.2 | Mean day of death (Mus musculus [43]): 18.8 | T/C (Mus musculus [44]): 142%
